From patent US20130184302A1, “METHODS FOR TREATING IRRITABLE BOWEL SYNDROME (IBS) AND INFECTIONS” (priority 2011, published 2013)

How the values were obtained:
[1] = system: subjects with IBS; assay: Sustained response and recurrence of symptoms after Primary Evaluation Period, rolling 4 weeks; type: in vivo, human
Method: An evaluation of the enrolled subjects was carried out after the Primary Evaluation Period in the study described in Examples 5-7. […] Subjects with no recurrence are defined as having a stool consistency score of less than 4, abdominal pain reduced by at least 30 percent or both.

[2] = system: C. difficile infection (CDI); assay: CDI trial: global cure of diarrhea; type: in vivo, human
Source text: Subjects having a global cure of diarrhea are set for the in Table 45. Global cure of diarrhea was defined as subjects who were cured of diarrhea at TOC without recurrence at follow up.

[3] = Rolling 2-5 Weeks, First and Second Studies, Rifaximin (N = 624)
[4] = Rolling 3-6 Weeks, First and Second Studies
[5] = Rolling 4-7 Weeks, First and Second Studies
[6] = Rolling 4-7 Weeks, Rifaximin (N = 624)
[7] = Rolling 5-8 Weeks, First and Second Studies
[8] = Rolling 5-8 Weeks, Rifaximin (N = 624)
[9] = Rolling 6-9 Weeks, First and Second Studies
[10] = Rolling 6-9 Weeks, Rifaximin (N = 624)
[11] = Rolling 7-10 Weeks, First and Second Studies
[12] = Rolling 7-10 Weeks, Rifaximin (N = 624)
[13] = Rolling 8-11 Weeks, First and Second Studies
[14] = Rolling 8-11 Weeks, Rifaximin (N = 624)
[15] = Rolling 9-12 Weeks, First and Second Studies
[16] = Rolling 9-12 Weeks, Rifaximin (N = 624)
[17] = Rifaximin N = 117, Vancomycin N = 115
[18] = cured of diarrhea at TOC without recurrence at follow up, Rifaximin N = 117, Vancomycin N = 115

CO[C@H]1/C=C/O[C@@]2(C)Oc3c(C)c(O)c4c(O)c(c5c(nc6cc(C)ccn65)c4c3C2=O)NC(=O)/C(C)=C\C=C\[C@H](C)[C@H](O)[C@@H](C)[C@@H](O)[C@@H](C)[C@H](OC(C)=O)[C@@H]1C [Rifaximin, (2S,16Z,18E,20S,21S,22R, 23R,24R,25S,26S,27S,28E)-5,6,21,23,25 Pentahydroxy-27-methoxy-2,4,11,16,20,22,24,26-octamethyl-2,7-(epoxypentadeca-(1,11,13)trienimino) benzofuro (4,5-e) pyrido(1,2,-a) benzimidazole-1,15(2H)-dione,25-acetate]
Abdominal Pain or Stool Consistency: Sustained Durable Response ([1]; First and Second Studies, Rifaximin (N = 624)): (28.8%) | Abdominal Pain & Stool Consistency: Sustained Durable Response ([1]; Rifaximin (N = 624)): (33.2%) | Abdominal Pain: Sustained Durable Response ([1]; Rifaximin (N = 624)): (35.7%) | Stool Consistency: Sustained Durable Response ([1]; Rifaximin (N = 624)): (68.9%) | Abdominal Pain or Stool Consistency: No Recurrence [1, 3]: (45.8%) | Abdominal Pain or Stool Consistency: Recurrence [1, 3]: (1.9%) | Abdominal Pain or Stool Consistency: No Recurrence [1, 4]: (43.9%) | Abdominal Pain or Stool Consistency: Recurrence [1, 4]: (3.7%) | Abdominal Pain or Stool Consistency: No Recurrence [1, 5]: (40.2%) | Abdominal Pain or Stool Consistency: Recurrence [1, 5]: (2.7%) | Abdominal Pain & Stool Consistency: No Recurrence [1, 6]: (48.2%) | Abdominal Pain & Stool Consistency: Recurrence [1, 6]: (3.7%) | Abdominal Pain: No Recurrence [1, 6]: (51.9%) | Abdominal Pain: Recurrence [1, 6]: (3.8%) | Stool Consistency: No Recurrence [1, 6]: (78.8%) | Stool Consistency: Recurrence [1, 6]: (1.3%) | Abdominal Pain or Stool Consistency: No Recurrence [1, 7]: (37.5%) | Abdominal Pain or Stool Consistency: Recurrence [1, 7]: (2.6%) | Abdominal Pain & Stool Consistency: No Recurrence [1, 8]: (44.6%) | Abdominal Pain & Stool Consistency: Recurrence [1, 8]: (3.2%) | Abdominal Pain: No Recurrence [1, 8]: (48.1%) | Abdominal Pain: Recurrence [1, 8]: (3.0%) | Stool Consistency: No Recurrence [1, 8]: (77.6%) | Stool Consistency: Recurrence [1, 8]: (2.1%) | Abdominal Pain or Stool Consistency: No Recurrence [1, 9]: (34.9%) | Abdominal Pain or Stool Consistency: Recurrence [1, 9]: (1.6%) | Abdominal Pain & Stool Consistency: No Recurrence [1, 10]: (41.3%) | Abdominal Pain & Stool Consistency: Recurrence [1, 10]: (2.2%) | Abdominal Pain: No Recurrence [1, 10]: (45.0%) | Abdominal Pain: Recurrence [1, 10]: (2.4%) | Stool Consistency: No Recurrence [1, 10]: (75.5%) | Stool Consistency: Recurrence [1, 10]: (2.6%) | Abdominal Pain or Stool Consistency: No Recurrence [1, 11]: (33.3%) | Abdominal Pain or Stool Consistency: Recurrence [1, 11]: (1.6%) | Abdominal Pain & Stool Consistency: No Recurrence [1, 12]: (39.1%) | Abdominal Pain & Stool Consistency: Recurrence [1, 12]: (1.8%) | Abdominal Pain: No Recurrence [1, 12]: (42.6%) | Abdominal Pain: Recurrence [1, 12]: (2.4%) | Stool Consistency: No Recurrence [1, 12]: (72.9%) | Stool Consistency: Recurrence [1, 12]: (1.4%) | Abdominal Pain or Stool Consistency: No Recurrence [1, 13]: (31.7%) | Abdominal Pain or Stool Consistency: Recurrence [1, 13]: (1.3%) | Abdominal Pain & Stool Consistency: No Recurrence [1, 14]: (37.3%) | Abdominal Pain & Stool Consistency: Recurrence [1, 14]: (2.2%) | Abdominal Pain: No Recurrence [1, 14]: (40.2%) | Abdominal Pain: Recurrence [1, 14]: (2.2%) | Stool Consistency: No Recurrence [1, 14]: (71.5%) | Stool Consistency: Recurrence [1, 14]: (0.5%) | Abdominal Pain or Stool Consistency: No Recurrence [1, 15]: (30.4%) | Abdominal Pain or Stool Consistency: Recurrence [1, 15]: (1.6%) | Abdominal Pain & Stool Consistency: No Recurrence [1, 16]: (35.1%) | Abdominal Pain & Stool Consistency: Recurrence [1, 16]: (1.9%) | Abdominal Pain: No Recurrence [1, 16]: (38.0%) | Abdominal Pain: Recurrence [1, 16]: (2.2%) | Stool Consistency: No Recurrence [1, 16]: (71.0%) | Stool Consistency: Recurrence [1, 16]: (2.1%) | Global Cure of Diarrhea: No, number of subjects [2, 17]: 34 | Global Cure of Diarrhea: No, percent of subjects [2, 17]: (29%) | Global Cure of Diarrhea: Treatment Difference ([2]; Rifaximin vs Vancomycin): −3.0% | Global Cure of Diarrhea: Yes, number of subjects [2, 18]: 83 | Global Cure of Diarrhea: Yes, percent of subjects [2, 18]: (71%)
